Laboratory results from PMC11822212, “High-throughput screening identifies Aurora kinase B as a critical therapeutic target for Merkel cell carcinoma” (Nature Communications, 2025).
Read-outs that look alike come from different tables or passages of the source.

What was measured:
Assay in all cases: qHTS cell viability (CellTiter-Glo, 72 h; primary and follow-up small molecule screen)
Assay type in all cases: cell-based, human
MCC13 cells (VN-MCC) = tested on: MCC13 cells (VN-MCC)
UISO cells (VN-MCC) = tested on: UISO cells (VN-MCC)
MKL-1 cells (VP-MCC) = tested on: MKL-1 cells (VP-MCC)
MKL-2 cells (VP-MCC) = tested on: MKL-2 cells (VP-MCC)
WAGA cells (VP-MCC) = tested on: WAGA cells (VP-MCC)
MCC26 cells (VN-MCC) = tested on: MCC26 cells (VN-MCC)
[1] = follow-up screen, MCC13, replicate 1
[2] = follow-up screen, MCC13, replicate 2
[3] = follow-up screen, MCC13, replicate 3
[4] = follow-up screen, UISO, replicate 1
[5] = follow-up screen, UISO, replicate 2
[6] = follow-up screen, UISO, replicate 3
[7] = follow-up screen, MKL-1, replicate 1
[8] = follow-up screen, MKL-1, replicate 2
[9] = follow-up screen, MKL-1, replicate 3
[10] = follow-up screen, MKL-2, replicate 1
[11] = follow-up screen, MKL-2, replicate 2
[12] = follow-up screen, MKL-2, replicate 3
[13] = follow-up screen, WAGA, replicate 1
[14] = follow-up screen, WAGA, replicate 2
[15] = follow-up screen, WAGA, replicate 3
[16] = follow-up screen, MCC26, replicate 1
[17] = follow-up screen, MCC26, replicate 2
[18] = follow-up screen, MCC26, replicate 3

| Structure (SMILES) | Area under the dose-response curve (AUC) MCC13 Replicate 1 (MCC13 cells (VN-MCC)) | Area under the dose-response curve (AUC) MCC13 Replicate 2 (MCC13 cells (VN-MCC)) | Area under the dose-response curve (AUC) MCC13 Replicate 1 (MCC13 cells (VN-MCC); [1]) | Area under the dose-response curve (AUC) MCC13 Replicate 2 (MCC13 cells (VN-MCC); [2]) | Area under the dose-response curve (AUC) MCC13 Replicate 3 (MCC13 cells (VN-MCC); [3]) | Area under the dose-response curve (AUC) UISO Replicate 1 (UISO cells (VN-MCC); [4]) | Area under the dose-response curve (AUC) UISO Replicate 2 (UISO cells (VN-MCC); [5]) | Area under the dose-response curve (AUC) UISO Replicate 3 (UISO cells (VN-MCC); [6]) | Area under the dose-response curve (AUC) MKL-1 Replicate 1 (MKL-1 cells (VP-MCC); [7]) | Area under the dose-response curve (AUC) MKL-1 Replicate 2 (MKL-1 cells (VP-MCC); [8]) | Area under the dose-response curve (AUC) MKL-1 Replicate 3 (MKL-1 cells (VP-MCC); [9]) | Area under the dose-response curve (AUC) MKL-2 Replicate 1 (MKL-2 cells (VP-MCC); [10]) | Area under the dose-response curve (AUC) MKL-2 Replicate 2 (MKL-2 cells (VP-MCC); [11]) | Area under the dose-response curve (AUC) MKL-2 Replicate 3 (MKL-2 cells (VP-MCC); [12]) | Area under the dose-response curve (AUC) WAGA Replicate 1 (WAGA cells (VP-MCC); [13]) | Area under the dose-response curve (AUC) WAGA Replicate 2 (WAGA cells (VP-MCC); [14]) | Area under the dose-response curve (AUC) WAGA Replicate 3 (WAGA cells (VP-MCC); [15]) | Area under the dose-response curve (AUC) MCC26 Replicate 1 (MCC26 cells (VN-MCC); [16]) | Area under the dose-response curve (AUC) MCC26 Replicate 2 (MCC26 cells (VN-MCC); [17]) | Area under the dose-response curve (AUC) MCC26 Replicate 3 (MCC26 cells (VN-MCC); [18]) | also measured |
| --- | --- | --- | --- | --- | --- | --- | --- | --- | --- | --- | --- | --- | --- | --- | --- | --- | --- | --- | --- | --- | --- |
| O[C@H]1[C@H]2[C@H](O)CCCN2C[C@H]1O [Swainsonine] | 474.5 | 467.6 | – | – | – | – | – | – | – | – | – | – | – | – | – | – | – | – | – | – | Area under the dose-response curve (AUC) MCC13 Replicate 3 (MCC13 cells (VN-MCC)): 453.7; Area under the dose-response curve (AUC) UISO Replicate 1 (UISO cells (VN-MCC)): 446.0; Area under the dose-response curve (AUC) UISO Replicate 2 (UISO cells (VN-MCC)): 458.3; Area under the dose-response curve (AUC) UISO Replicate 3 (UISO cells (VN-MCC)): 417.9; Area under the dose-response curve (AUC) MKL-1 Replicate 1 (MKL-1 cells (VP-MCC)): 483.5; Area under the dose-response curve (AUC) MKL-1 Replicate 2 (MKL-1 cells (VP-MCC)): 459.4; Area under the dose-response curve (AUC) MKL-1 Replicate 3 (MKL-1 cells (VP-MCC)): 455.2; Area under the dose-response curve (AUC) MKL-2 Replicate 1 (MKL-2 cells (VP-MCC)): 462.0; Area under the dose-response curve (AUC) MKL-2 Replicate 2 (MKL-2 cells (VP-MCC)): 456.2; Area under the dose-response curve (AUC) MKL-2 Replicate 3 (MKL-2 cells (VP-MCC)): 445.8; Area under the dose-response curve (AUC) WAGA Replicate 1 (WAGA cells (VP-MCC)): 517.4; Area under the dose-response curve (AUC) WAGA Replicate 2 (WAGA cells (VP-MCC)): 504.3; Area under the dose-response curve (AUC) WAGA Replicate 3 (WAGA cells (VP-MCC)): 463.6; Area under the dose-response curve (AUC) MCC26 Replicate 1 (MCC26 cells (VN-MCC)): 425.6; Area under the dose-response curve (AUC) MCC26 Replicate 2 (MCC26 cells (VN-MCC)): 420.4; Area under the dose-response curve (AUC) MCC26 Replicate 3 (MCC26 cells (VN-MCC)): 449.5 |
| CC(/C=C/C(=O)NO)=C\[C@@H](C)C(=O)c1ccc(N(C)C)cc1 [TSA] | 419.6 | 438.9 | – | – | – | – | – | – | – | – | – | – | – | – | – | – | – | – | – | – | Area under the dose-response curve (AUC) MCC13 Replicate 3 (MCC13 cells (VN-MCC)): 399.7; Area under the dose-response curve (AUC) UISO Replicate 1 (UISO cells (VN-MCC)): 357.7; Area under the dose-response curve (AUC) UISO Replicate 2 (UISO cells (VN-MCC)): 378.3; Area under the dose-response curve (AUC) UISO Replicate 3 (UISO cells (VN-MCC)): 338.8; Area under the dose-response curve (AUC) MKL-1 Replicate 1 (MKL-1 cells (VP-MCC)): 401.2; Area under the dose-response curve (AUC) MKL-1 Replicate 2 (MKL-1 cells (VP-MCC)): 324.1; Area under the dose-response curve (AUC) MKL-1 Replicate 3 (MKL-1 cells (VP-MCC)): 329.2; Area under the dose-response curve (AUC) MKL-2 Replicate 1 (MKL-2 cells (VP-MCC)): 276.9; Area under the dose-response curve (AUC) MKL-2 Replicate 2 (MKL-2 cells (VP-MCC)): 277.0; Area under the dose-response curve (AUC) MKL-2 Replicate 3 (MKL-2 cells (VP-MCC)): 326.7; Area under the dose-response curve (AUC) WAGA Replicate 1 (WAGA cells (VP-MCC)): 341.0; Area under the dose-response curve (AUC) WAGA Replicate 2 (WAGA cells (VP-MCC)): 323.1; Area under the dose-response curve (AUC) WAGA Replicate 3 (WAGA cells (VP-MCC)): 341.7; Area under the dose-response curve (AUC) MCC26 Replicate 1 (MCC26 cells (VN-MCC)): 375.6; Area under the dose-response curve (AUC) MCC26 Replicate 2 (MCC26 cells (VN-MCC)): 383.1; Area under the dose-response curve (AUC) MCC26 Replicate 3 (MCC26 cells (VN-MCC)): 360.2 |
| C/C=C(/C)C(=O)O[C@H]1C(C)=C2[C@H]([C@@H]1OC(=O)CCCCCCC)[C@@](C)(OC(C)=O)C[C@H](OC(=O)CCC)[C@@]1(O)[C@H]2OC(=O)[C@@]1(C)O [Thapsigargin] | – | – | 289.0 | 272.1 | 274.4 | 207.4 | 234.5 | 207.7 | 384.9 | 385.8 | 395.7 | 322.6 | 308.5 | 284.8 | 336.3 | 303.0 | 289.2 | 278.4 | 281.8 | 214.4 | – |
| CN(C)C(=S)SSC(=S)N(C)C [Thiram] | – | – | 426.5 | 421.8 | 374.2 | 236.0 | 292.8 | 254.7 | 288.7 | 292.8 | 242.1 | 303.0 | 281.4 | 269.4 | 336.4 | 438.2 | 469.3 | 337.3 | 393.8 | 315.2 | – |
| N#CC(=C(/N)Sc1ccccc1N)/C(C#N)=C(\N)Sc1ccccc1N [U-0126] | – | – | 475.9 | 463.7 | 403.4 | 414.2 | 403.9 | 361.8 | 488.8 | 473.7 | 468.2 | 434.1 | 447.4 | 479.4 | 550.5 | 484.0 | 458.9 | 467.3 | 454.7 | 472.7 | – |
| COc1cc(O)c2c(c1)oc(=O)c1c3cc(O)c(O)cc3oc21 [WEDELOLACTONE] | 452.7 | 445.8 | – | – | – | – | – | – | – | – | – | – | – | – | – | – | – | – | – | – | Area under the dose-response curve (AUC) MCC13 Replicate 3 (MCC13 cells (VN-MCC)): 440.3; Area under the dose-response curve (AUC) UISO Replicate 1 (UISO cells (VN-MCC)): 275.6; Area under the dose-response curve (AUC) UISO Replicate 2 (UISO cells (VN-MCC)): 271.0; Area under the dose-response curve (AUC) UISO Replicate 3 (UISO cells (VN-MCC)): 228.5; Area under the dose-response curve (AUC) MKL-1 Replicate 1 (MKL-1 cells (VP-MCC)): 490.5; Area under the dose-response curve (AUC) MKL-1 Replicate 2 (MKL-1 cells (VP-MCC)): 454.4; Area under the dose-response curve (AUC) MKL-1 Replicate 3 (MKL-1 cells (VP-MCC)): 448.6; Area under the dose-response curve (AUC) MKL-2 Replicate 1 (MKL-2 cells (VP-MCC)): 426.5; Area under the dose-response curve (AUC) MKL-2 Replicate 2 (MKL-2 cells (VP-MCC)): 409.5; Area under the dose-response curve (AUC) MKL-2 Replicate 3 (MKL-2 cells (VP-MCC)): 433.4; Area under the dose-response curve (AUC) WAGA Replicate 1 (WAGA cells (VP-MCC)): 442.4; Area under the dose-response curve (AUC) WAGA Replicate 2 (WAGA cells (VP-MCC)): 419.0; Area under the dose-response curve (AUC) WAGA Replicate 3 (WAGA cells (VP-MCC)): 421.6; Area under the dose-response curve (AUC) MCC26 Replicate 1 (MCC26 cells (VN-MCC)): 436.4; Area under the dose-response curve (AUC) MCC26 Replicate 2 (MCC26 cells (VN-MCC)): 432.2; Area under the dose-response curve (AUC) MCC26 Replicate 3 (MCC26 cells (VN-MCC)): 441.9 |
| Cc1ccc(NC(=O)c2cccc(N(C)C)c2)cc1NC(=O)c1ccc(O)cc1 [ZM-336372] | – | – | 498.2 | 493.5 | 506.1 | 448.6 | 464.6 | 456.5 | 480.0 | 490.6 | 522.7 | 501.8 | 535.1 | 493.2 | 500.4 | 604.1 | 537.5 | 438.1 | 425.8 | 478.4 | – |
